Results taken from article PMC8839821, “Potential Mechanisms Involved in the Protective Effect of Dicaffeoylquinic Acids from Artemisia annua L. Leaves against Diabetes and Its Complications” (Molecules, 2022).

Key:
[1] = tested on: human skin fibroblast (HSF) cells; assay: In vitro cell viability / cytotoxicity (SRB assay); type: cell-based; settings: 72 h incubation, highest tested concentration 100 µg/mL
Procedure: (§1) Human Skin Fibroblasts (HSF) cell line was obtained from Nawah Scientific Inc. (Mokatam, Cairo, Egypt). Cells were kept in DMEM media with […] of streptomycin, 100 units/mL of penicillin and 10% of heat-inactivated fetal bovine serum in humidified, 5% (v/v) CO2 atmosphere at 37 °C.
Effect of the alcoholic extract and the isolated compounds on cell viability was evaluated to assess their safety utilizing SRB assay. An aliquot of 100 µL cell suspension (5 × 10^3 cells) was incubated with 100 μL media containing the test samples at concentrations (0.01, 0.1, 1, 10, 100 µg/mL) for 72 h. Media was removed and 150 μL of 10% TCA was added for fixing the cells that was further incubated at 4 °C for 1h. Cells were then washed with distilled water and 70 μL 0.4% SRB solution was added, and plates were placed in dark for 10 min. Plates were then washed with 1% acetic acid and left to dry overnight. 150 μL of 10 mM TRIS was then added and the absorbance was measured at 540 nm using a BMG LABTECH®-FLUOstar Omega microplate reader (Ortenberg, Germany). Experiments were done in triplicates and the IC50 was calculated.

α-amylase enzyme = biological target: T1, α-amylase enzyme (Sus scrofa, UniProt P00690); assay: α-Amylase inhibition assay (CNPG3 hydrolysis, kinetic); type: biochemical, porcine pancreas
T1 construct: Alpha-amylase (porcine pancreas); purchased Sigma-Aldrich; host or cells: porcine pancreas
T1 sequence (P00690 16-511): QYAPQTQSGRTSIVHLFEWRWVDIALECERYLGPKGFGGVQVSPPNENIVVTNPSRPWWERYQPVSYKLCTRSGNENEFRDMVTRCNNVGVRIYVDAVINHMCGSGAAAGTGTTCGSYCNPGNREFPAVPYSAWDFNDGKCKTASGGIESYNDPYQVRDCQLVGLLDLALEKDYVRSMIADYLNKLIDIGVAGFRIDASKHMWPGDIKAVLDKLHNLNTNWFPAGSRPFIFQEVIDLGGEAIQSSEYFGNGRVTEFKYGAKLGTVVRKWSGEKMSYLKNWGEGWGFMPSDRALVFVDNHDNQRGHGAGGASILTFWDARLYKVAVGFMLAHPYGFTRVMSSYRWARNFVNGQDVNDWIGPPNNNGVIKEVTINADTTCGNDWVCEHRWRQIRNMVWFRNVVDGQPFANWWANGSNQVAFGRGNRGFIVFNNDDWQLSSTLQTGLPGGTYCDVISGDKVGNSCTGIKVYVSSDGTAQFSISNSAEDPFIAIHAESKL
Procedure: Alpha-amylase (porcine pancreas), 2-chloro-4-nitrophenyl-D-maltotrioside (CNPG3) and tetramethylsilane were from Sigma-Aldrich (St. Louis, MO, USA) while the remaining chemicals were from UFC Biotechnology. Spectrophotometric readings were performed using the microplate reader (Anthos Zenyth 200RT, Cambridge, UK). ^1H-NMR (400 MHz) analysis was carried out using Bruker NMR Spectrometer (Bruker, Yokohama, Japan). Spectra were recorded in CD3OD or DMSO-d6 with tetramethylsilane being employed as an internal standard, and chemical shift values were expressed in ppm.
The inhibitory effect of the polar fraction (ART-CQ) and isolated compounds from Artemisia Annua on the activity of α-amylase enzyme was assessed kinetically as previously described. […] The change in absorbance per min is proportional to the enzyme activity. Various concentrations of ART-CQ (10, 50, 100, 200 µg/mL) and isolated compounds (5, 20, 50, 100 µg/mL) were preincubated with the enzyme for 15 min at 37 °C before the addition of CNPG3.

[2] = DPPH radical scavenging assay; settings: mean ± SEM of two replicates
Procedure: 2,2-diphenyl-1-picrylhydrazil (DPPH) Radical Scavenging Assay was exploited to assess the free radical scavenging potential of ART-CQ and the pure compounds according to Motaal et al., 2011 [52]. Different concentrations of ART-CQ (8, 16, 48, 64 µg/mL) and the isolated compounds (2, 4, 12, 16 µg/mL) were used. Ascorbic acid was used as the standard positive control and water was used in place of samples as a blank. The IC50 value for the test samples and standard was evaluated.

[3] = biological target: T2, Dipeptidyl Peptidase IV (DPPIV) enzyme (Homo sapiens, UniProt P27487); assay: Dipeptidyl peptidase IV (DPPIV) inhibition assay (fluorometric inhibitor screening kit); type: biochemical; settings: mean ± SEM of two replicates; read-out: DPPIV inhibitory activity IC50 (converted)
T2 construct: purchased Abnova
Procedure: The dipeptidyl peptidase IV (DPPIV) inhibition effectiveness of the polar fraction of Artemisia annua (ART-CQ) and the isolated compounds was determined fluorometrically by using the DPPIV Inhibitor Screening Kit (Abnova, Taipei, Taiwan) following the manufacturer’s protocol. […] Then the enzyme substrate solution was added, and the […] was measured at Ex/Em = 360/460 nm. The plate was reincubated for 30 min at 37 °C and the […] was recorded again. Vidagliptin was used as the reference standard. The difference between the two readings was estimated and the IC50 was determined.

[4] = Ferric Reducing Antioxidant Power (FRAP) assay; settings: ART-CQ 50 µg/mL, isolated compounds 25 µg/mL
Procedure: The DetectX® Ferric Reducing Antioxidant Power (FRAP™) Detection Kit (Arbor assays, Ann Arbor, MI, USA) was used to estimate the antioxidant and ferric reducing activity of the polar fraction of A. annua and the isolated compounds in accordance with the method of Benzie and Strain (1996). ART-CQ was utilized in a concentration of (50 µg/mL) while the isolated compounds were used in a concentration of (25 µg/mL). Ferric chloride standard and ascorbic acid control were used in the assay and the FRAP values were estimated and presented as µM FeCl2.

α-glucosidase = assay: α-Glucosidase inhibition assay (inhibitor screening kit); type: biochemical; settings: mean ± SEM of two replicates
Procedure: The in vitro α-glucosidase inhibitory potential of ART-CQ and its isolated compounds was evaluated using the α-Glucosidase Inhibitor Screening Kit (Biovision, Milpitas, CA, USA). […] After incubation, 20 µL of the α-Glucosidase Substrate in buffer was added and the absorbance was measured kinetically at 410 nm for 60 min. The polar fraction was tested in concentrations (10, 50, 100, 200 µg/mL) while the concentrations of the isolated compounds were (5, 20, 50, 100 µg/mL).
The change in absorbance is directly proportional to enzyme activity and the presence of enzyme inhibitor reduces the formation of the end product with the resultant decrease in absorbance.

[5] = tested on: human skin fibroblast (HSF) cells; assay: Scratch wound healing assay; type: cell-based; settings: for effect on scratch wound healing (in words): tested at 10, 100, 1000 µg/mL; for time to complete wound healing: control healed in 72 h
Procedure: as §1
The wound healing assay was conducted to evaluate the effect of different concentrations of the polar fraction and isolated compounds from Artemisia Annua on the migration ability of HSF cell line using the scratch wound healing assay as previously described. In a coated 12-well plates, cells were seeded at density of 2 × 10^5/well in 5% FBS-DMEM and cultured overnight at 37 °C and 5% CO2. On the following day, horizontal scratches were made into the confluent monolayer and the plates were washed with PBS and treated with fresh media containing the combined polar extract and the isolated compounds in concentrations of 10, 100, 1000 µg/mL. Control wells were done using only plain medium. The plates were incubated at 37 °C and 5% CO2 and images were captured using an inverted microscope at 24, 48 and 72 h time intervals. The acquired images were analyzed by MII ImageView software version 3.7. Experiments were performed in triplicates. Wound width was calculated as the average distance between the edges of the scratches. As cell migration enhanced, the wound width diminishes.

aldose reductase enzyme = aldose reductase enzyme (Homo sapiens, UniProt P15121); assay: Aldose reductase inhibition assay (NADPH decrease at 340 nm, screening kit)
Procedure: Aldose reductase inhibitory activity was determined kinetically by measuring the decrease in the absorption of NADPH at 340 nm in a reaction mixture containing, in addition to NADPH, the enzyme, DL-glyceraldehyde and the samples [50]. This was accomplished using the Aldose Reductase Inhibitor Screening Kit (Biovision, Milpitas, CA, USA), in accordance with the manufacturer’s instructions. […] Then 60 μL of NADPH and 90 μL of enzyme solution were added and the plate was incubated in dark for 20 min at 37 °C. Subsequently, 40 μL of DL-glyceraldehyde was pipetted and the absorbance was determined at 340 nm at 37 °C for 90 min.

T2 sequence (P27487 whole entry, species assumed): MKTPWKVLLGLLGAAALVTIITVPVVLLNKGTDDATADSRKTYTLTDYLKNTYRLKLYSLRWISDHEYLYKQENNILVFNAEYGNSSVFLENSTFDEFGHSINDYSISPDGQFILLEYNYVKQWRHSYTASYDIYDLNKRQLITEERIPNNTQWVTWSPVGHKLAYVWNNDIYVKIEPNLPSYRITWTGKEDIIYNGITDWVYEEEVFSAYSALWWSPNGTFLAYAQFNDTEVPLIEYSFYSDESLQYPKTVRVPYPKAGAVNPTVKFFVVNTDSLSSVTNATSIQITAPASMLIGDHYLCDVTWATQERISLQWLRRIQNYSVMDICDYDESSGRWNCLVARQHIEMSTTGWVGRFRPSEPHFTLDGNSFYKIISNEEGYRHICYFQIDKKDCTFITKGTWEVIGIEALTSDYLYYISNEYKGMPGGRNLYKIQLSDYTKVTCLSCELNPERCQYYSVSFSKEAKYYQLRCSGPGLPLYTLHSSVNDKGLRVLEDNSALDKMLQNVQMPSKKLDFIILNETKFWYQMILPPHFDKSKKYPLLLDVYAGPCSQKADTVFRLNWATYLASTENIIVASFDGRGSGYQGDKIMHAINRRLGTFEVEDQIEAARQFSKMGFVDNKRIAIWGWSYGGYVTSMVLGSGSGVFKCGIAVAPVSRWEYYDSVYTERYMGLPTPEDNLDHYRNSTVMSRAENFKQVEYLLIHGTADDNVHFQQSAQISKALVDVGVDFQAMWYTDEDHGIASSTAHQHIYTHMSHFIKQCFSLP

O=C(C=Cc1ccc(O)c(O)c1)OC1CC(O)(C(=O)O)CC(OC(=O)C=Cc2ccc(O)c(O)c2)C1O (stereo not drawn) [Compound 1, 3,5-dicaffeoylquinic acid]
IC50 [1]: > 100 µg/mL | α-amylase inhibitory effect (in words) (α-amylase enzyme): no α-amylase inhibitory effect | DPPH free radical scavenging, concentration for 50% scavenging (IC50) [2]: 30.94 ± 4.61 µg/mL | IC50 [3]: 436 nM | FRAP value relative to that of ascorbic acid [4]: about 8 times that of the ascorbic acid | α-glucosidase inhibitory activity IC50 (α-glucosidase): 157.13 ± 6.82 µg/mL | effect on scratch wound healing (in words) [5]: inhibited cell migration and wound healing

O=C(C=Cc1ccc(O)c(O)c1)OC1CC(O)(C(=O)O)CC(O)C1OC(=O)C=Cc1ccc(O)c(O)c1 (stereo not drawn) [Compound 2, 4,5-dicaffeoylquinic acid]
IC50 [1]: > 100 µg/mL | DPPH free radical scavenging, concentration for 50% scavenging (IC50) [2]: 14.94 ± 0.60 µg/mL | IC50 [3]: 4400 nM | wound width as % of the original wound width at 24 h ([5]; 10 µg/mL, 24 h, control 56%): 40% | time to complete wound healing ([5]; 10 µg/mL): 48 h | effect on scratch wound healing (in words) [5]: improved the wound healing

COC(=O)C1(O)CC(O)C(OC(=O)C=Cc2ccc(O)c(O)c2)C(OC(=O)C=Cc2ccc(O)c(O)c2)C1 (stereo not drawn) [Compound 3, 3,4-dicaffeoylquinic acid methyl ester]
IC50 [1]: > 100 µg/mL | IC50 (aldose reductase enzyme): 16800 nM | IC50 (α-amylase enzyme; mean ± SEM of two replicates): 2850 nM | DPPH free radical scavenging, concentration for 50% scavenging (IC50) [2]: 7.78 ± 0.24 µg/mL | IC50 [3]: 1080 nM | FRAP value relative to that of ascorbic acid [4]: more than 30 times that of the ascorbic acid | α-glucosidase inhibitory activity IC50 (α-glucosidase): 250.42 ± 8.44 µg/mL | wound width as % of the original wound width at 48 h ([5]; 10 µg/mL, 48 h, control 37%): 23% | time to complete wound healing ([5]; 10 µg/mL): 72 h | effect on scratch wound healing (in words) [5]: improved the wound healing

O=C1O[C@H]([C@@H](O)CO)C(O)=C1O [ascorbic acid, reference compound]
DPPH free radical scavenging, concentration for 50% scavenging (IC50) [2]: 5.50 ± 0.30 µg/mL
